Patent US20250145610A1, “CRYSTALLINE FORM OF ISAVUCONAZONIUM SULFATE AND A PROCESS FOR ITS PREPARATION” (Glenmark Life Sciences Limited, priority 2022, published 2025)
Counter-ions that a name gives are not always drawn.

Assay: Stability study of crystalline vs amorphous isavuconazonium sulfate: impurity content by HPLC after storage
Format: physicochemical
Conditions: for Impurity Compound IV content / Impurity Compound IX content / Impurity Compound VI content / Impurity Compound VII content / Impurity Compound VIII content / Impurity Compound X content: HPLC; for Storage stability (in words): 3 months at −20° C. and 2° to 8° C.
Method: High performance liquid chromatography (HPLC) was performed with the conditions described below for detecting chemical purity:
Column: Xterra MS C18, 150×4.6 mm, 3.5μ; Column Temperature: 45° C., Mobile phase: Mobile Phase A; 0.1% Perchloric acid in water: Mobile Phase B=Methanol
Diluent: Methanol: 0.3% Sodium bisulphate (70:30 v/v); Flow Rate: 1.0 mL/Minutes, Detection: 260 nm; Injection Volume: 20 μL.
Comparative stability data was generated for crystalline isavuconazonium sulfate (Form GL-1) and the amorphous form of isavuconazonium sulfate (prepared as described in Comparative Example 1) stored at a temperature of −20° C. and from 2° to 8° C. for three (3) months (i.e., 12 weeks). In particular, the crystalline isavuconazonium sulfate (Form GL-1) obtained as per Example 3 and the amorphous form of isavuconazonium sulfate of Comparative Example 1 were taken in an appropriate amount, and packed in a transparent polyethylene bag. The bag was sealed under vacuum and then enclosed in a black LDPE (Low-density polyethylene) bag which in turn is kept in triple laminated aluminium pouches sealed at three sides. The fourth side of the bag is then sealed under vacuum and kept in a HDPE (High-density polyethylene) container, and stored at −20° C. and from 2° to 8° C. for 3 months (i.e., 12 weeks). Both materials were analyzed after 3 months of storage by the HPLC method described above.

[1] = 3 Month at 2°-8° C., monosulfate salt
[2] = 3 Month at −20° C., monosulfate salt

Impurity Compound IV content [1] [%] | Impurity Compound IX content [1] [%] | Impurity Compound VI content [1] [%] | Impurity Compound VII content [1] [%] | Impurity Compound VIII content [1] [%] | Impurity Compound X content [1] [%] | Impurity Compound IV content [2] [%] | Impurity Compound IX content [2] [%] | Impurity Compound VI content [2] [%] | Impurity Compound VII content [2] [%] | Impurity Compound VIII content [2] [%] | Impurity Compound X content [2] [%] | Impurity Compound IV content (Initial, monosulfate salt) [%] | Impurity Compound IX content (Initial, monosulfate salt) [%] | Impurity Compound VI content (Initial, monosulfate salt) [%] | Impurity Compound VII content (Initial, monosulfate salt) [%] | Impurity Compound VIII content (Initial, monosulfate salt) [%] | Impurity Compound X content (Initial, monosulfate salt) [%] | Compound | further results
0.76 | 2.5 | 0.33 | 0.12 | 0.44 | 0.04 | 0.41 | 1.26 | 0.10 | 0.12 | 0.44 | 0.03 | 0.21 | 0.51 | 0.04 | 0.12 | 0.44 | 0.03 | CNCC(=O)OCc1cccnc1N(C)C(=O)OC(C)n1cn[n+](C[C@](O)(c2cc(F)ccc2F)[C@@H](C)c2nc(-c3ccc(C#N)cc3)cs2)c1 (stereo partly drawn) [Amorphous isavuconazonium sulfate prepared as per comparativ] [(2-{[(1-{1-[(2R,3R)-3-[4-(4-cyanophenyl)-1,3-thiazol-2-yl]-2-(2,5-difluorophenyl)-2-hydroxybutyl]-1H-1,2,4-triazol-4-ium-4-yl}ethoxy)carbonyl](methyl)amino}pyridin-3-yl)methyl-N-methylglycinate monosulfate salt, reference compound] | Stability of the solid form (in words) (generates impurities of formulae IV, VI, VII, VIII, IX, X and XI): unstable
0.07 | 0.13 | 0.03 | 0.08 | 0.02 | 0.07 | 0.05 | 0.09 | 0.02 | 0.08 | 0.03 | 0.08 | 0.03 | 0.09 | 0.01 | 0.08 | 0.03 | 0.05 | CNCC(=O)OCc1cccnc1N(C)C(=O)OC(C)n1cn[n+](C[C@](O)(c2cc(F)ccc2F)[C@@H](C)c2nc(-c3ccc(C#N)cc3)cs2)c1 (stereo partly drawn) [Crystalline isavuconazonium sulfate (Form GL-1) of Example 3] [(2-{[(1-{1-[(2R,3R)-3-[4-(4-cyanophenyl)-1,3-thiazol-2-yl]-2-(2,5-difluorophenyl)-2-hydroxybutyl]-1H-1,2,4-triazol-4-ium-4-yl}ethoxy)carbonyl](methyl)amino}pyridin-3-yl)methyl-N-methylglycinate monosulfate salt] | Storage stability (in words) (listed as Form GL-1, monosulfate salt): more stable compared to the amorphous form of isavuconazonium sulfate; Storage stability (in words) (listed as crystalline isavuconazonium sulfate (Form GL-1), monosulfate salt): stable at 3 months; Period over which stability is maintained (stored at −20° C. and 2° to 8° C., sealed under vacuum): ≥ 3 months
